Reference: patent US7396672B2, “Method for the production of dinoflagellate cultures” (priority 2003, dated 2008)

Assays:
Type in all cases: cell-based
[1] = system: Isochrysis galbana (CCMP1323); test: cell proliferation assay, monoculture of phytoplankton; settings: 8 days
Description: (§1) The effects of mimosine at low mM concentrations on pure cultures of four different groups of phytoplankton were tested. The phytoplankton tested were the Cryptophyceae Rhodomonas salina (CCMP1319), the Prymnesiophyceae Isochrysis galbana (CCMP1323), the Bacillariophyceae Cylindricus fusiformis (PCC100) and the dinoflagellate Heterocapsa triquetra (CCMP449). Cultures of phytoplankters were obtained from Bigelow Laboratory for Ocean Sciences (CCMP) or the Plymouth Culture Collection (PCC). The cultures were maintained in f/2 medium at 18° C., under photon flux of […] from fluorescent tubes (Phillips daylight) under a 14:10 hours light/dark cycle. For cell proliferation assays, exponentially growing cells were diluted ten times with fresh medium before the addition of mimosine to give cultures having a final mimosine concentration of 0.01, 0.1 and 1 mM. All chemicals were from Sigma Corporation unless otherwise stated. All growth studies were performed in triplicate. Cell counting was performed by Coulter counter and all samples were counted at least three times.

[2] = system: Rhodomonas salina (CCMP1319); test: as above; settings: 8 days
Description: as §1

[3] = system: Cylindricus fusiformis (PCC100); test: as above; settings: 8 days
Description: as §1

[4] = system: Heterocapsa triquetra (CCMP449); test: as above; settings: 1 mM mimosine
Description: as §1

diatoms = test: mixed phytoplankton in natural seawater samples; settings: 2 mM mimosine, 6 days, diatoms dominant group in the control
Description: (§2) Whether mimosine can confer an advantage in the phytoplankton community by adding mimosine directly to natural seawater samples was therefore tested. Natural seawater samples were collected from Port Shelter (eastern Hong Kong) and filtered through a 100 μm mesh to remove all zooplankton immediately before use. Mimosine was then added at 2 mM and samples were taken for estimation of the percentage of dinoflagellates and diatoms. The samples were then incubated under the same conditions as in Example 1. Within 6 days, dinoflagellates became the dominant group. The dinoflagellate population increased from 30% to 60% of the total population (FIG. 2). The diatoms, which were the dominant group in the control, decreased to 10% of the total population in 6 days (at the time of measurement) upon treatment with mimosine.

dinoflagellates = test: mixed phytoplankton in natural seawater samples; settings: 2 mM mimosine
Description: as §2

[5] = 0.01 and 0.1 mM mimosine, f/2 medium

## NC(Cn1ccc(=O)c(O)c1)C(=O)O (stereo not drawn) [mimosine, α-amino-3-hydroxy-4-oxo-1-pyridine propanoic acid]
[1]; 1 mM mimosine
  cell number increase: no cell number increase
[1]; [5]
  cell number compared to control treatment: slightly lower numbers of cells, though not significantly so
[2]; 1 mM mimosine
  mean cell numbers significantly lower than those in the controls: 75%
[2]; [5]
  cell number compared to control treatment: slightly lower numbers of cells, though not significantly so
[3]; 1 mM mimosine
  mean cell numbers significantly lower than those in the controls: 25%
[3]; [5]
  cell number compared to control treatment: slightly lower numbers of cells, though not significantly so
[4]
  cell number compared to control treatment: increased the cell number significantly
diatoms
  diatoms as percentage of the total population: 10%
dinoflagellates; natural seawater
  time until dinoflagellates became the dominant group: ≤ 6 days
dinoflagellates; natural seawater (Port Shelter), 6 days, increased from 30%
  dinoflagellate population as percentage of the total population: 60%
